In paper PMC9356039, “Multifunctional synthetic nano-chaperone for peptide folding and intracellular delivery” (Nature Communications, 2022):

Key:
[1] = Water solubility (in words); type: physicochemical
[2] = CD spectroscopy, α-helicity by CONTIN-LL; type: physicochemical; settings: for helix %: CONTINLL from CD spectra, Avg of replicates Ⅰ-Ⅲ; for α-Helicity, helix % avg: CD spectra, CONTINLL, summary table, mean of n = 3
Method: CD spectra were measured using a J-810 spectropolarimeter (JASCO, Japan). Spectra were recorded from 250 nm to 190 nm wavelength using a 1 cm path-length cuvette. Scans were repeated five times and averaged. Molar ellipticity was calculated per amino acid residue. The concentrations of SNCP and p53pep were 0.2 mg/mL and 20 μM, respectively. All sample suspensions were incubated at least for 2 days at room temperature before CD measurement. To perform temperature-dependent CD experiments, the spectra were recorded at 10 °C interval over a temperature range of 25 to 75 °C, with 30 min incubation time to reach equilibrium at each temperature. The α-helicity of peptides was calculated by using the CONTIN-LL algorithms provided from the DICHROWEB server.

HepG2 cells = assay: CCK-8 cell viability; type: cell-based, human; settings: 24 h, 50
Method: Human liver cancer cell line HepG2 were grown in DMEM containing 10% FBS and 1% penicillin/streptomycin at 37 °C in a humidified atmosphere of 5% CO2. HepG2 cells (1.2 × 10^5 cells/well) were seeded in a 4-well glass plate for 24 h. Then, SNCPs@st-p53pep (0.02 mg/mL) and st-p53pep alone (2 μM) were added to each well in a serum-free medium for 4 h. After incubation, the cells were carefully rinsed with PBS, and the medium was replaced with a serum-containing fresh medium. After the nucleus was stained with Hoechst 33342 staining kit by manufacturer’s protocol, bright field and fluorescence images were obtained by using a DeltaVision Elite Microscopy System (GE Healthcare, USA). To observe the distribution of SNCP8 and st-p53pep in cells, TAMRA-labeled SNCP8@FAM-labeled st-p53pep (0.25 mg/mL) was treated in the same manner instead of SNCP8@st-p53pep. And then, the Mander’s overlap coefficient (MOC) was calculated in the Image J program (ver. 1.52a) via the JACoP plugin to identify co-localization between fluorescence signals over time. […] The cell viability was determined using cell counting kit-8 (CCK-8) assay by monitoring absorbance at 450 and 670 nm wavelength measured using a microplate reader (Molecular Devices, Inc., USA). The EC50 values of SNCPs@st-p53pep were determined by the logistic curve-fitting method with Origin (OriginLab, USA).

proteinase K [3] = biological target: proteinase K (Parengyodontium album, UniProt P06873); assay: in vitro; type: in vitro ADME
Method: (§1) To investigate whether SNCP8@st-p53pep could effectively suppress tumor growth in vivo, we evaluated the anti-tumor effect of SNCP8@st-p53pep using human liver cancer (HepG2) xenograft bearing mouse model. Mice were treated with SNCP8@st-p53pep and controls by intratumoral injection every three days and tumor volume changes were monitored for 14 days. […] Next, we monitored distribution of TAMRA-SNCP8 (red), FAM-st-p53pep (green), and TAMRA-SNCP8@FAM-st-p53pep in the tumor-bearing mouse overtime after intratumoral injection. As shown in Fig. 5b and Supplementary Fig. 20, green fluorescence signal in the tumor treated with TAMRA-SNCP8@FAM-st-p53pep slowly diminished during 72 h, while signal in tumor treated with FAM-st-p53pep alone quickly disappeared within 24 h. […] To compare the lifetime of st-p53pep in tumor more precisely, we calculated the half-life (t1/2) of green fluorescence decay for each sample by analyzing region of interest (ROI) on the basis of whole-body fluorescence image (Fig. 5c).
(§2) Supplementary Figure 19. The proteolytic degradation of p53pep. Semi-quantitative analysis of protease-mediated degradation of p53pep by using the matrix-assisted laser desorption ionization time-of-flight mass spectrometry ( MALDI-TOF MS).
(§3) (a) Mass spectrum of p53pep without SNCP8 (left) and with SNCP8 (right) over 12 h.
(§4) The cumulative remaining p53pep in short (b) and long (c) periods in different conditions: p53pep (circle) and SNCP8@p53pep (square). Rapid degradation of free p53pep within 1 min is observed while the degradation of p53pep inside the SNCP8 […]
(§5) proteinase K (N = 3, biologically independent samples; mean ± SD).
(§6) (1 picture or pasted object on this page, not shown here)

proteinase K [4] = assay: in vitro; type: in vitro ADME; settings: isolated enzyme proteinase k
Method: as §1, §2, §3, §4, §5, §6

[5] = biological target: T1, MDM2_1-118 (hMDM2 protein) (Homo sapiens, UniProt Q00987); assay: Fluorescence polarization binding affinity; settings: peptide 50 nM, PBS pH 7.4, 0.01% Tween20, 10 mM DTT, 2% DMSO, room temperature, N = 3, mean ± SD
T1 construct: purchased SignalChem (Canada)
Method: Each of p53pep and st-p53pep (50 nM) were incubated with MDM2_1-118 with various concentrations in binding assay buffer (PBS pH 7.4 with 0.01% Tween20, 10 mM DTT, 2% DMSO) at room temperature. Binding affinity was measured by fluorescence polarization on a Biotek Synergy Neo2 multi-mode microplate reader. Kd values were determined by nonlinear regression analysis.

[6] = biological target: synthetic p53 peptide (p53pep); assay: fluorescence polarisation; 50 nM FAM-labelled peptide incubated with MDM2(1-118) at various concentrations; PBS pH 7.4 with 0.01% Tween20, 10 mM DTT, 2% DMSO; room temperature; Kd by nonlinear regression
[7] = biological target: stapled p53 peptide prepared by click reaction (st-p53pep); assay: as above
[8] = biological target: MDM2(1-118), a part of the target protein possessing the p53pep binding site (UniProt Q00987)
MDM2(1-118), a part of the target protein possessing the p53pep binding site (UniProt Q00987), sequence (Q00987 1-118): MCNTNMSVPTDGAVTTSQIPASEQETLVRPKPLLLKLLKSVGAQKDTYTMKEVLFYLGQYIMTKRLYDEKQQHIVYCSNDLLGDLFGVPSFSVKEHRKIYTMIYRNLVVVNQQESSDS

MDM2(1-118), a part of the target protein possessing the p53pep binding site (from UniProt Q00987 1-118) (domain or fragment), sequence (Q00987 1-118): as above
T1 sequence (Q00987 1-118): as above
proteinase K (Parengyodontium album, UniProt P06873), sequence (P06873 106-384, species assumed): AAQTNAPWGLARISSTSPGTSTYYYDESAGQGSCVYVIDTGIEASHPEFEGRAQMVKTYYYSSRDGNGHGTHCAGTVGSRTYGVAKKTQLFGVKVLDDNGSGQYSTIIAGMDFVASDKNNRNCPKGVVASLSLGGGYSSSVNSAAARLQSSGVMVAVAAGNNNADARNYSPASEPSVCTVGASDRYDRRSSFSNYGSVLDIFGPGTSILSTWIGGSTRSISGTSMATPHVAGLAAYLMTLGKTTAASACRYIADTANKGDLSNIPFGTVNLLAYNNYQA

C#CCCC(=O)NCCCC[C@@H](NC(=O)[C@H](Cc1ccccc1)NC(=O)[C@@H](NC(=O)[C@H](CCC(N)=O)NC(=O)[C@H](CCC(N)=O)NC(=O)[C@H](CO)NC(=O)[C@H](CCC(N)=O)NC(=O)CNC(=O)CNC(=O)c1ccc2c(c1)C(=O)OC21c2ccc(O)cc2Oc2cc(O)ccc21)[C@@H](C)O)C(=O)N[C@@H](CC(N)=O)C(=O)N[C@@H](CC(C)C)C(=O)N[C@@H](Cc1c[nH]c2ccccc12)C(=O)N[C@@H](CCCNC(=N)N)C(=O)N[C@@H](CC(C)C)C(=O)N[C@@H](CC(C)C)C(=O)N[C@@H](CCCN=[N+]=[N-])C(=O)N[C@@H](CCC(N)=O)C(=O)N[C@@H](CC(N)=O)C(N)=O [p53pep]
solubility in water (in words) [1]: insoluble in water
helix % ([2]; 25C): 39.4%
α-Helicity, helix % avg ([2]; 25 ℃): 39.4%
helix % ([2]; 35C): 35.9%
α-Helicity, helix % avg ([2]; 35 ℃): 35.9%
helix % ([2]; 45C): 37.5%
α-Helicity, helix % avg ([2]; 45 ℃): 37.5%
helix % ([2]; 55C): 36.5667%
helix % ([2]; 65C): 34.0667%
helix % ([2]; 75C): 35.9667%
cell viability at corresponding dose (HepG2 cells): more than 80%
time of degradation by proteinase K (proteinase K [3]): ≤ 1 min
remaining at 1 min (proteinase K [4]): 16.9%
remaining at 0.05 h (proteinase K [4]): 8.39%
remaining at 5 min (proteinase K [4]): 5.56%
remaining at 10 min (proteinase K [4]): 3.21%
remaining at 0.5 h (proteinase K [4]): 6.68%
remaining at 1 h (proteinase K [4]): 9.04%
remaining at 12 h (proteinase K [4]): 3.85%
Kd [5]: 80.6 ± 2.33 nM

MDM2(1-118), a part of the target protein possessing the p53pep binding site (from UniProt Q00987 1-118) (domain or fragment)
Kd [6]: 80.6 nM
Kd [7]: 27.7 nM

synthetic p53 peptide (p53pep)
viability of HepG2 cells (CCK-8) at the corresponding dose of SNCP8@p53pep (unstapled peptide delivered in SNCP8) [8]: > 80%
